Experimental data published in patent publication US20240002369A1, “NOVEL TREATMENTS OF ATTENTION DEFICIT/HYPERACTIVITY DISORDER” (priority 2020, published 2024).
“Also recorded” adds a separate entry of the source. Where a name gives a salt, the structure may show the parent alone. Marks after values point to notes of the source that are not given here.

Assays:
Lphn3.1 HOM larvae [1] = experiment: Sleep behavior in freely moving zebrafish larvae during lights-off period; conditions: for comparison of all sleep parameters (summary): 1, 10, 30 μM, FIG. 6A-6D
Description: This assay provides a measure of muscle weakness and/or motor coordination, which co-occurs with certain sleep states, but can also occur independently of sleep. […] Thus, to evaluate the effect of moxonidine on sleep behavior, the sleep behavior in freely moving zebrafish (Lphn3.1 HOM larvae) following treatment with moxonidine, a comparator compound, or negative control (i.e. saline or vehicle control) was assessed in line with the criteria described by Levitas-Djerbi et al., (Curr Opin Neurobiol. 2017; 44:89-93) and Sorribes et al., (Front Neural Circuits. 2013 Nov. 13; 7:178).
In brief, sleep behavior was recorded in a 96-well plate and analysed during the lights-off period (22:00-08:00). First, all behavior was dichotomized into 1-s bins of movement or non-movement. […] All activity that was slower than that threshold was computed as non-movement. Thus, rendering a dichotomized record of the behavior in either movement or non-movement. Next, the dichotomized record was transformed into bins of sleep and wake. Following previously established sleep criteria in adults, and adapted to larval fish (Yokogawa et al., PLoS Biol. 2007; 5(10):2379-97, Sorribes et al., Front Neural Circuits. 2013; 7:178, and Sigurgeirsson et al., Behav Brain Res. 2013; 256:377-90), six or more consecutive 1-s bins of non-movement were counted as sleep and all else was counted as wake. That is, the seventh second and above were classified as sleep; all other bouts were classified as wake. Once the number of sleep and wake bouts was calculated, five different sleep parameters were assessed (i.e. sleep fragmentation, sleep ratio, velocity during sleep, wake bout duration(s), and sleep bout duration(s)). Sleep fragmentation was defined as the number of transitions between sleep and wake bouts per hour. Sleep ratio was calculated as the percentage of total night time that the fish was considered asleep. Velocity during sleep (mm/s) was defined as the average velocity throughout the night time. Wake bout duration(s) was defined as the average length of wake bouts. Sleep bout duration(s) was defined as the average length of sleep bouts.

Lphn3.1 WT larvae = experiment: Motor assay in wild-type zebrafish larvae; type: in vivo, zebrafish (Danio rerio)
[2] = test system: scopolamine-induced cognitive dysfunction; experiment: T-maze alternation test, scopolamine-induced cognitive dysfunction model; type: in vivo, Male CD-1 mice
Text: Male CD-1 mice aged 4-5 weeks were allocated to a T-maze to perform the T-maze alternation test as described by Andriambeloson et al., 2014 (Pharma Res Per, 2 (4), 2014, e00048, included herein by reference). In brief, each mouse was placed in a T-maze consisting of a main stem and two arms. The experiment consisted of one “forced-choice” trial and 14 “free-choice” trials to evaluate the number of spontaneous alternations.

Lphn3.1 HOM larvae [3] = experiment: Motor assay in the zebrafish model of ADHD (Lphn3.1 knock-out larvae); type: in vivo, zebrafish (Danio rerio)
Text: Zebrafish larvae carrying a knock-out of the Latrophilin3 (Lphn3.1) gene were generated by CRISPR-Cas9. Zebrafish were kept in a 14:10 light: dark cycle in 3 or 10 L multi tank constant flow system (Aquatic Habitats, Apopka, FL, USA). For behavioral analysis a total number of 881, 6 days-post fertilization (dpf) embryos carrying a homozygous knock-out of the Lphn3.1 gene were used in the study. Adult zebrafish with a homozygous knock-out of the Lphn3.1 gene and adult zebrafish with a wild-type Lphn3.1 gene were fed three times a day on a variable diet of TetraMin flakes (Tetra Holding GmbH, Melle, Germany) and live Artemia. […]
Following a 24 hour acclimation period, behavioral recordings were made. Locomotor activity was recorded between […] and 6.00 pm at 6 dpf during alternating light and dark conditions, presented in 30-minute intervals. For this period, average distance moved (mm) by the larvae was calculated as the mean of the total distance swum during five separate 30-minute intervals immediately after transition of light conditions. […]
Data was obtained using EthoVision XT (Version Nov. 5, 2016, Noldus) and exported to Microsoft Excel for analysis. […] For analysis of Lphn 3.1 larvae treated with moxonidine statistical differences were evaluated using one-way ANOVA with Dunnett two-sided post hoc analysis. […]

[4] = Tan et al., Proc Natl Acad Sci USA 2002; cited from earlier work
[5] = 1 uM vs HOM - DMSO, average length of sleep bouts
[6] = 1 uM vs HOM - DMSO, average length of wake bouts
[7] = 1 uM vs HOM - DMSO, average velocity throughout the night time
[8] = 1 uM vs HOM - DMSO, share of total night time asleep
[9] = 1 uM vs HOM - DMSO, transitions between sleep and wake bouts per hour, lights-off 22:00-08:00
[10] = 10 uM vs HOM - DMSO, average length of sleep bouts
[11] = 10 uM vs HOM - DMSO, average length of wake bouts
[12] = 10 uM vs HOM - DMSO, average velocity throughout the night time
[13] = 10 uM vs HOM - DMSO, share of total night time asleep
[14] = 10 uM vs HOM - DMSO, transitions between sleep and wake bouts per hour, lights-off 22:00-08:00
[15] = 30 uM vs HOM - DMSO, average length of sleep bouts
[16] = 30 uM vs HOM - DMSO, average length of wake bouts
[17] = 30 uM vs HOM - DMSO, average velocity throughout the night time
[18] = 30 uM vs HOM - DMSO, share of total night time asleep
[19] = 30 uM vs HOM - DMSO, transitions between sleep and wake bouts per hour, lights-off 22:00-08:00
[20] = Lphn3.1 HOM, zebrafish, in vivo, 10 h, 1 uM
[21] = Lphn3.1 HOM, zebrafish, in vivo, 10 h, 10 uM
[22] = Lphn3.1 HOM, zebrafish, in vivo, 10 h, 30 uM

| SMILES | SleepDuration (sleep bout duration) Mean Difference (I − J) (Lphn3.1 HOM larvae [1]; [5]) | WakeDuration (wake bout duration) Mean Difference (I − J) (Lphn3.1 HOM larvae [1]; [6]) | Velocity (during sleep) Mean Difference (I − J) (Lphn3.1 HOM larvae [1]; [7]) | SleepRatio Mean Difference (I − J) (Lphn3.1 HOM larvae [1]; [8]) | SleepFragmentation Mean Difference (I − J) (Lphn3.1 HOM larvae [1]; [9]) | SleepDuration (sleep bout duration) Mean Difference (I − J) (Lphn3.1 HOM larvae [1]; [10]) | WakeDuration (wake bout duration) Mean Difference (I − J) (Lphn3.1 HOM larvae [1]; [11]) | Velocity (during sleep) Mean Difference (I − J) (Lphn3.1 HOM larvae [1]; [12]) | SleepRatio Mean Difference (I − J) (Lphn3.1 HOM larvae [1]; [13]) | SleepFragmentation Mean Difference (I − J) (Lphn3.1 HOM larvae [1]; [14]) | SleepDuration (sleep bout duration) Mean Difference (I − J) (Lphn3.1 HOM larvae [1]; [15]) | WakeDuration (wake bout duration) Mean Difference (I − J) (Lphn3.1 HOM larvae [1]; [16]) | Velocity (during sleep) Mean Difference (I − J) (Lphn3.1 HOM larvae [1]; [17]) | SleepRatio Mean Difference (I − J) (Lphn3.1 HOM larvae [1]; [18]) | SleepFragmentation Mean Difference (I − J) (Lphn3.1 HOM larvae [1]; [19]) | comparison of all sleep parameters (summary) (Lphn3.1 HOM larvae [1]) | velocity in wild-type larvae (Lphn3.1 WT larvae) | further results |
| --- | --- | --- | --- | --- | --- | --- | --- | --- | --- | --- | --- | --- | --- | --- | --- | --- | --- | --- |
| Clc1cccc(Cl)c1N=C1NCCN1 [Clonidine, clonidine] | −4.177* s | 2.095* s | .08382* mm/s | −.12630* | 11.79* | −4.388* s | 2.1* s | .09470* mm/s | −.13226* | 12.98* | −6.197* s | 8.132* s | .23026* mm/s | −.24115* | −7.699 | drastically altered all sleep parameters at the majority of doses tested | – | – |
| CNCC[C@@H](Oc1ccccc1C)c1ccccc1 [atomoxetine, atomoxetine hydrochloride] | 8.266* s | −2.547* s | −.09320* mm/s | .18730* | −23.58* | 6.306* s | -1.806 s | −.03944* mm/s | .15382* | −19.14* | 9.808* s | −3.112* s | −.10640* mm/s | .22326* | −26.47* | drastically altered all sleep parameters at the majority of doses tested | increase velocity | spontaneous alternations, rescue of scopolamine effect ([2]; vs scopolamine-exposed mice, p<0.0001, FIG. 4): rescued |
| N=C(N)NC(=O)Cc1c(Cl)cccc1Cl [Guanfacine, guanfacine] | – | – | – | – | – | – | – | – | – | – | – | – | – | – | – | – | – | SleepDuration (sleep bout duration) Mean Difference (I − J) (Lphn3.1 HOM larvae [1]; [20]): 3.64* s; SleepFragmentation Mean Difference (I − J) (Lphn3.1 HOM larvae [1]; [20]): −1.812; SleepRatio Mean Difference (I − J) (Lphn3.1 HOM larvae [1]; [20]): .12336*; Velocity (during sleep) Mean Difference (I − J) (Lphn3.1 HOM larvae [1]; [20]): −.08559* mm/s; WakeDuration (wake bout duration) Mean Difference (I − J) (Lphn3.1 HOM larvae [1]; [20]): −3.163* s; SleepDuration (sleep bout duration) Mean Difference (I − J) (Lphn3.1 HOM larvae [1]; [21]): 1.224 s; SleepFragmentation Mean Difference (I − J) (Lphn3.1 HOM larvae [1]; [21]): 7.4424; SleepRatio Mean Difference (I − J) (Lphn3.1 HOM larvae [1]; [21]): .06927*; Velocity (during sleep) Mean Difference (I − J) (Lphn3.1 HOM larvae [1]; [21]): −.07521* mm/s; WakeDuration (wake bout duration) Mean Difference (I − J) (Lphn3.1 HOM larvae [1]; [21]): −2.542* s; SleepDuration (sleep bout duration) Mean Difference (I − J) (Lphn3.1 HOM larvae [1]; [22]): 2.369* s; SleepFragmentation Mean Difference (I − J) (Lphn3.1 HOM larvae [1]; [22]): 1.559; SleepRatio Mean Difference (I − J) (Lphn3.1 HOM larvae [1]; [22]): .09806*; Velocity (during sleep) Mean Difference (I − J) (Lphn3.1 HOM larvae [1]; [22]): −.08512* mm/s; WakeDuration (wake bout duration) Mean Difference (I − J) (Lphn3.1 HOM larvae [1]; [22]): −2.735* s |
| COc1nc(C)nc(Cl)c1NC1=NCCN1 [Moxonidine, moxonidine] | -1.586 s | 0.8031 s | −0.02492 mm/s | −0.04916 | 3.2294 | -1.0974 s | -0.00334 s | −.07640* mm/s | −0.02153 | 5.727 | -1.57 s | 3.687 s | −.05041* mm/s | −0.06247 | −1.7339 | only a slight increase in velocity | increase velocity | average distance moved over the five lights-on phases (Lphn3.1 HOM larvae [3]; 1 μM, 10 μM or 30 μM vs vehicle control (DMSO), FIG. 3): differed significantly from vehicle control and untreated larvae; also recorded: Statistically significant differences; behavioral deficits (24 hour velocity spectrogram) (Lphn3.1 HOM larvae [3]; 10 μM, Lphn3.1 HOM larvae, FIG. 5): rectifies the behavioral deficits; behavioral parameters (24 hour velocity spectrogram) (Lphn3.1 WT larvae; 10 μM, FIG. 5): no effect on behavioral parameters; spontaneous alternation, dose dependence ([2]; 0.1 mg/kg, 0.3 mg/kg and 1 mg/kg, FIG. 4): dose-dependent increase in spontaneous alternation; spontaneous alternation ([2]; 0.3 mg/kg vs mice exposed to scopolamine, p<0.001): significant increased spontaneous alternation; spontaneous alternation ([2]; 1 mg/kg vs mice exposed to scopolamine, p<0.0001): significant increased spontaneous alternation; sedation in the rotarod assay [4]: less sedation compared to clonidine and brimonidine |
